As usually defined, the IC50 is the concentration at which inhibition is half-maximal. High values mean lower potency, low ones higher potency.

Here are results for 20 compounds from US9493502B2, “Ribofuranosyl purine compounds, methods for preparing the same and use thereof” (Beijing KBD Pharmaceuticals Co., Ltd., priority 2011, dated 2016).

Test [1] relates to ADP-induced platelet aggregation. The test is described as follows: in vitro anti-platelet aggregation induced by ADP (platelet-rich plasma, aggregometer). The conditions noted are these: Homo sapiens; platelet-rich plasma of healthy volunteers, inductive agent ADP (10 uM), 37° C. The class given is cell-based. From the text:
(§1) The inventor conducted the anti-platelet aggregation activity screening for the compounds of the present invention, carried out the anti-platelet aggregation test by using the blood platelet which was closed to human physiological state and was not washed with water, and conducted the activity test of the in vitro anti-platelet aggregation induced by ADP, and also the activity test of the in vitro anti-platelet aggregation induced by AA (arachidonic acid) for some compounds. The present invention firstly discloses the activity test of the in vitro anti-platelet aggregation induced by AA conducted with said type of compounds.
(§2) The anti-platelet aggregation test of the compounds was conducted by the aggregometer (Model 400VS, Chrono-Log, Haverston, Pa.) from Chrono-Log Corp. ADP, AA (arachidonic acid), DMSO and trisodium citrate were purchased from Sigama.
(§3) The fasting venous blood of the subjects was collected, and placed into a 50 mL sampling tube containing 3.8% sodium citrate, and mixed homogeneously in a ratio of 1:9 (v/v) for anticoagulation, and centrifugalized at 300 rpm/min for 20 min.
(§4) The supernatant was taken to obtain platelet-rich blood plasma (PRP). The residual blood was then centrifugalized at 900 rpm/min for 10 min, and the supernatant fluid was taken to obtain platelet-poverty blood plasma (PPP). The analysis of platelet aggregation was conducted by using the aggregometer (Chrono-Log Corp.), wherein PRP and PPP were respectively added to two turbidimetric tubes. In the aggregometer, platelet-poverty blood plasma (PPP) was used as the control group. DMSO was used as the negative control. The turbidimetric tubes were incubated at 37° C. for 3 min. The PRP was stirred with a stirring rod at 900 rpm/min for 10-20 s, and the inductive agent ADP (10 uM) or AA (0.5 mM) was added to PRP, and start to record the aggregated wave patterns. The chart speed of the recorder (Model 707, Chrono-Log, Haverston, Pa., USA) was set up to be 1 cm min^−1, and the aggregation reaction was recorded for not less than 3 min. Finally, the apparatus automatically delineated the aggregation curve and calculated the results, i.e. maximum platelet aggregation rate. When the platelet aggregation was lower than 50% of the control group, the IC50 of the compound was calculated.

The subject of test [2] is AA (arachidonic acid)-induced platelet aggregation. The test is described as follows: in vitro anti-platelet aggregation induced by AA (arachidonic acid) (platelet-rich plasma, aggregometer). The class given is cell-based. To be noted: Homo sapiens; platelet-rich plasma of healthy volunteers, inductive agent AA (0.5 mM), 37° C.
Source text: as §1, §2, §3, §4

The structures appear in SMILES notation. Bounds are passed on as bounds.

`CC(C)Sc1nc(NC2CCCCC2)c2ncn([C@@H]3O[C@H](CO)[C@@H](O)[C@H]3O)c2n1` [Example 11, 2-isopropylthio-6-cyclohexylamino-9-β-D-ribofuranosyl purine] registered an IC50 in test [1] of 187 µM.

As to `CCCSc1nc(NCCc2ccc(OC)cc2)c2ncn([C@@H]3O[C@H](CO)[C@@H](O)[C@H]3O)c2n1` [Example 24, 2-propylthio-6-([4-methoxylphenylethyl]amino)-9-β-D-ribofuranosyl purine], in test [1], half-maximal inhibition (IC50) required 267 µM.

`CCCCSc1nc(NC2CCCCC2)c2ncn([C@@H]3O[C@H](CO)[C@@H](O)[C@H]3O)c2n1` [Example 12, 2-butylthio-6-cyclohexylamino-9-β-D-ribofuranosyl purine]: in test [1], the IC50 is 83 µM.

For `CCSc1nc(NCCc2cccc(OC)c2)c2ncn([C@@H]3O[C@H](CO)[C@@H](O)[C@H]3O)c2n1` [Example 26, 2-ethylthio-6-([3-methoxylphenylethyl]amino)-9-β-D-ribofuranosyl purine], the IC50 in test [1] is 38 µM; in test [2], over 300 µM.

As for `COc1ccc(CCNc2nc(SC)nc3c2ncn3[C@@H]2O[C@H](CO)[C@@H](O)[C@H]2O)cc1` [Example 22, 2-methylthio-6-([4-methoxylphenylethyl]-amino)-9-β-D-ribofuranosyl purine], half-maximal inhibition in test [1] (IC50) required 153 µM.

As to `CCCSc1nc(NCCc2ccccc2)c2ncn([C@@H]3O[C@H](CO)[C@@H](O)[C@H]3O)c2n1` [Example 20, 2-propylthio-6-phenylethylamino-9-β-D-ribofuranosyl purine], the IC50 in test [1] came out at 52 µM; in test [2], 44 µM.

As for `CCSc1nc(NC(C)c2ccccc2)c2ncn([C@@H]3O[C@H](CO)[C@@H](O)[C@H]3O)c2n1` (stereo partly drawn) [Example 16, 2-ethylthio-6-(1-phenylethyl)amino-9-β-D-ribofuranosyl purine], the IC50 in test [1] is 197 µM.

`CCCSc1nc(NC2CCCCC2)c2ncn([C@@H]3O[C@H](CO)[C@@H](O)[C@H]3O)c2n1` [Example 10, 2-propylthio-6-cyclohexylamino-9-β-D-ribofuranosyl purine] displayed an IC50 in test [1] of 151 µM.

Turning to `CCSc1nc(NCc2ccccc2)c2ncn([C@@H]3O[C@H](CO)[C@@H](O)[C@H]3O)c2n1` [Example 13, 2-ethylthio-6-benzylamino-9-β-D-ribofuranosyl purine], the IC50 in test [1] was 176 µM.

The compound `CCCSc1nc(NCCc2cccc(OC)c2)c2ncn([C@@H]3O[C@H](CO)[C@@H](O)[C@H]3O)c2n1` [Example 27, 2-propylthio-6-([3-methoxylphenylethyl]amino)-9-β-D-ribofuranosyl purine] gave an IC50 in test [1] of 69 µM.

On to `CCCSc1nc(NCc2ccc(OC)cc2)c2ncn([C@@H]3O[C@H](CO)[C@@H](O)[C@H]3O)c2n1` [Example 17, 2-propylthio-6-([4-methoxylbenzyl]amino)-9-β-D-ribofuranosyl purine], for which, in test [1], inhibition was half-maximal at 181 µM (IC50).

For the compound `CCCCCCNc1nc(SCCC)nc2c1ncn2[C@@H]1O[C@H](CO)[C@@H](O)[C@H]1O` [Example 8, 2-propylthio-6-n-hexylamino-9-β-D-ribofuranosyl purine], half-maximal inhibition in test [1] (IC50) was put at 102 µM.

Turning to `CCSc1nc(NCCc2ccc(OC)cc2)c2ncn([C@@H]3O[C@H](CO)[C@@H](O)[C@H]3O)c2n1` [Example 23, 2-ethylthio-6-([4-methoxylphenylethyl]amino)-9-β-D-ribofuranosyl purine], inhibition in test [1] was half-maximal at 89 µM (IC50).

`CSc1nc(NCCc2ccccc2)c2ncn([C@@H]3O[C@H](CO)[C@@H](O)[C@H]3O)c2n1` [Example 18, 2-methylthio-6-phenylethylamino-9-β-D-ribofuranosyl purine]: the IC50 worked out at 36 µM in test [1] and 3 µM in test [2].

On to `CCSc1nc(NCCc2ccccc2)c2ncn([C@@H]3O[C@H](CO)[C@@H](O)[C@H]3O)c2n1` [Example 19, 2-ethylthio-6-phenylethylamino-9-β-D-ribofuranosyl purine], for which the IC50 came to 29 µM in test [1] and 30 µM in test [2].

For the compound `CCCCSc1nc(NCCc2ccc(OC)cc2)c2ncn([C@@H]3O[C@H](CO)[C@@H](O)[C@H]3O)c2n1` [Example 25, 2-butylthio-6-([4-methoxylphenylethyl]amino)-9-β-D-ribofuranosyl purine], the IC50 in test [1] was 93 µM.

`CCCCSc1nc(NCc2ccccc2)c2ncn([C@@H]3O[C@H](CO)[C@@H](O)[C@H]3O)c2n1` [Example 15, 2-butylthio-6-benzylamino-9-β-D-ribofuranosyl purine] showed an IC50 in test [1] of 202 µM.

`CCCCSc1nc(NCCc2ccccc2)c2ncn([C@@H]3O[C@H](CO)[C@@H](O)[C@H]3O)c2n1` [Example 21, 2-butylthio-6-phenylethylamino-9-β-D-ribofuranosyl purine]: the figures for the IC50 in test [1] and in test [2] were 59 µM and over 300 µM, respectively.

In turn, `CCCSc1nc(NCc2ccccc2)c2ncn([C@@H]3O[C@H](CO)[C@@H](O)[C@H]3O)c2n1` [Example 14, 2-propylthio-6-benzylamino-9-β-D-ribofuranosyl purine] yielded an IC50 in test [1] of 216 µM.

`CCSc1nc(NC2CCCCC2)c2ncn([C@@H]3O[C@H](CO)[C@@H](O)[C@H]3O)c2n1` [Example 9, 2-ethylthio-6-cyclohexylamino-9-β-D-ribofuranosyl purine]: in test [1], it took 104 µM to reach half-maximal inhibition (IC50).
